Results: patent US20260138957A1, “UREA-LINKED 2-AMINOIMIDAZOLE DIMER POTENTIATORS” (UNIVERSITY OF NOTRE DAME DU LAC, priority 2022, published 2026)
Where two headings read alike, the source gives them in different places.

Assays:
[1] = system: AB 5075; assay: Colistin MIC in absence or presence of compounds against AB 5075; assay type: cell-based, Acinetobacter baumannii; settings: colistin alone
Source text: However, dropping LOS comes with fitness costs such as reduced growth rates, lower virulence, and increased sensitivity towards certain antibiotics.

[2] = system: AB 5075; settings: colistin alone, earlier work; cited from earlier work

Measured: Colistin MIC

colistin [reference compound]
1 µg/mL: [1] | [1]; AB 5075 | [2]
